Experimental data from patent US8426441B2, “Inhibitors of bruton's tyrosine kinase” (Roche Palo Alto LLC, priority 2007, dated 2013).

| Structure (SMILES) | melting point [°C] |
| --- | --- |
| CNC(=O)Nc1cc(-c2cccc(NC(=O)c3ccc([Si](C)(C)C)cc3)c2C)cn2ccnc12 | 143.5 to 154.4 |
| C1=C(c2cc(Nc3ccccn3)c3nccn3n2)CCCC1 [Example I-3, (6-Cyclohex-1-enyl-imidazo[1,2-b]pyridazin-8-yl)-pyridin-2-yl-amine] | 160.7 to 161.5 |
| Cc1c(NC(=O)c2ccc(C(C)(C)C)cc2)cccc1-c1cc(NC(=O)NC(C)C)c2nccn2n1 [Example I-6, 4-tert-Butyl-N-{3-[8-(3-isopropyl-ureido)-imidazo[1,2-b]pyridazin-6-yl]-2-methyl-phenyl}-benzamide] | 178 to 180 |
| Cc1c(NC(=O)c2ccc(C(C)(C)C)cc2)cccc1-c1cc(NC(=O)NC(C)(C)C)c2nccn2n1 [Example I-10, 4-tert-Butyl-N-{3-[8-(3-tert-butyl-ureido)-imidazo[1,2-b]pyridazin-6-yl]-2-methyl-phenyl}-benzamide] | 191 to 193 |
| Cc1c(NC(=O)c2ccc(C(C)(C)C)cc2)cccc1-c1cc(Nc2nccs2)c2nccn2n1 [Example I-12, 4-tert-Butyl-N-{2-methyl-3-[8-(thiazol-2-ylamino)-imidazo[1,2-b]pyridazin-6-yl]-phenyl}-benzamide] | 178 to 179 |
| CNC(=O)Nc1cc(-c2ccccc2)nn2ccnc12 [Example I-13, 1-Methyl-3-(6-phenyl-imidazo[1,2-b]pyridazin-8-yl)-urea] | 192 to 193 |
| CNC(=O)Nc1cc(-c2cccc(CC(=O)N3Cc4ccccc4C3)c2)nn2ccnc12 [Example I-14, 1-(6-{3-[2-(1,3-Dihydro-isoindol-2-yl)-2-oxo-ethyl]-phenyl}-imidazo[1,2-b]pyridazin-8-yl)-3-methyl-urea] | 244 to 245 |
| CCOC(=O)c1ccc(Nc2cc(-c3ccccc3)cn3ccnc23)nc1 [Example I-47, 6-(6-Phenyl-imidazo[1,2-a]pyridin-8-ylamino)-nicotinic acid ethyl ester] | 141.5 to 142.5 |
| CCC(=O)Nc1cc(-c2cccc(NC(=O)c3ccc(C(C)(C)C)cc3)c2C)cn2ccnc12 [Example I-54, 4-tert-Butyl-N-[2-methyl-3-(8-propionylamino-imidazo[1,2-a]pyridin-6-yl)-phenyl]-benzamide] | 99 to 100 |
| CC(=O)Nc1cc(-c2cccc(NC(=O)c3ccc(C(C)(C)C)cc3)c2C)cn2ccnc12 [Example I-57, N-[3-(8-Acetylamino-imidazo[1,2-a]pyridin-6-yl)-2-methyl-phenyl]-4-tert-butyl-benzamide] | 132 to 133 |
| CNC(=O)Nc1cc(-c2ccccc2)cn2ccnc12 [Example I-61, 1-Methyl-3-(6-phenyl-imidazo[1,2-a]pyridin-8-yl)-urea] | 69 to 70 |
| Cc1c(NC(=O)c2ccc(N(C)C)cc2)cccc1-c1cc(NC(=O)NCCO)c2nccn2c1 [Example I-64, 4-Dimethylamino-N-(3-{8-[3-(2-hydroxy-ethyl)-ureido]-imidazo[1,2-a]pyridin-6-yl}-2-methyl-phenyl)-benzamide] | 153.7 to 164.4 |
| Cc1c(NC(=O)c2ccc(C(C)(C)C)cc2)cccc1-c1cc(NC(N)=O)c2nccn2c1 [Example I-67, 4-tert-Butyl-N-[2-methyl-3-(8-ureido-imidazo[1,2-a]pyridin-6-yl)-phenyl]-benzamide] | 185.4 to 215 |
| Cc1c(NC(=O)c2ccc(N(C)C)cc2)cccc1-c1cc(NC(=O)NCCCN2CCOCC2)c2nccn2c1 [Example I-68, 4-Dimethylamino-N-(2-methyl-3-{8-[3-(3-morpholin-4-yl-propyl)-ureido]-imidazo[1,2-a]pyridin-6-yl}-phenyl)-benzamide] | 190.2 to 209.7 |
| Cc1c(NC(=O)c2ccc(N(C)C)cc2)cccc1-c1cc(NC(=O)NCCCO)c2nccn2c1 [Example I-69, 4-Dimethylamino-N-(3-{8-[3-(3-hydroxy-propyl)-ureido]-imidazo[1,2-a]pyridin-6-yl}-2-methyl-phenyl)-benzamide] | 144.1 to 188.6 |
| Cc1c(NC(=O)N2CC(OC(C)(C)C)C2)cccc1-c1cc(NC(=O)NCCCN(C)C)c2nccn2c1 [Example I-70, 3-tert-Butoxy-azetidine-1-carboxylic acid {3-{8-[3-(3-dimethylamino-propyl)-ureido]-imidazo[1,2-a]pyridin-6-yl}-2-methyl-phenyl)-amide] | 129 to 130 |
| Cc1c(NC(=O)c2ccc(C(C)(C)C)cc2)cccc1-c1cc(NC(=O)NCCO)c2nccn2c1 [Example I-71, 4-tert-Butyl-N-(3-{8-[3-(2-hydroxy-ethyl)-ureido]-imidazo[1,2-a]pyridin-6-yl}-2-methyl-phenyl)-benzamide] | 176 to 177 |
| Cc1c(NC(=O)c2ccc(N(C)C)cc2)cccc1-c1cc(NC(=O)NCCCN2CCN(C)CC2)c2nccn2c1 [Example I-72, 4-Dimethylamino-N-[2-methyl-3-(8-{3-[3-(4-methyl-piperazin-1-yl)-propyl]-ureido}-imidazo[1,2-a]pyridin-6-yl)-phenyl]-benzamide] | 144 to 145 |
| CNC(=O)Nc1cc(-c2cccc(NC(=O)N3CC(OC(C)(C)C)C3)c2C)cn2ccnc12 [Example I-75, 3-tert-Butoxy-azetidine-1-carboxylic acid {2-methyl-3-[8-(3-methyl-ureido)-imidazo[1,2-a]pyridin-6-yl]-phenyl}-amide] | 158 to 161 |
| CNC(=O)Nc1cc(-c2cccc(NC(=O)c3ccc(OC)cc3)c2C)cn2ccnc12 [Example I-78, 4-Methoxy-N-{2-methyl-3-[8-(3-methyl-ureido)-imidazo[1,2-a]pyridin-6-yl]-phenyl}-benzamide] | 147.6 to 152.9 |
| CNC(=O)Nc1cc(-c2cccc(NC(=O)c3ccc(OC(F)(F)F)cc3)c2C)cn2ccnc12 [Example I-79, N-{2-Methyl-3-[8-(3-methyl-ureido)-imidazo[1,2-a]pyridin-6-yl]-phenyl}-4-trifluoromethoxy-benzamide] | 148.4 to 153.2 |
| CNC(=O)Nc1cc(-c2cccc(NC(=O)c3ccc(OC(C)C)cc3)c2C)cn2ccnc12 [Example I-81, 4-Isopropoxy-N-[2-methyl-3-[8-(3-methyl-ureido)-imidazo[1,2-a]pyridin-6-yl]-phenyl}-benzamide] | 147.1 to 151.7 |
| CC(O)(C#CCNC(=O)Cc1cccc(-c2cc(Nc3ccc(C(=O)N4CCOCC4)cn3)c3nccn3c2)c1)C(F)(F)F (stereo not drawn) [Example I-84, 2-(3-{8-[5-(Morpholine-4-carbonyl)-pyridin-2-ylamino]-imidazo[1,2-a]pyridin-6-yl}-phenyl)-N-(5,5,5-trifluoro-4-hydroxy-4-methyl-pent-2-ynyl)-acetamide] | 136.8 to 147.5 |
| O=C(Cc1cccc(-c2cc(Nc3ccc(C(=O)N4CCOCC4)cn3)c3nccn3c2)c1)N1CC(OC(C(F)(F)F)C(F)(F)F)C1 [Example I-90, 2-(3-{8-[5-(Morpholine-4-carbonyl)-pyridin-2-ylamino]-imidazo[1,2-a]pyridin-6-yl}-phenyl)-1-[3-(2,2,2-trifluoro-1-trifluoromethyl-ethoxy)-azetidin-1-yl]-ethanone] | 137 to 138 |
